# Key:
# [1] = tested on: male mice of ddY line; format: in vivo; conditions: 50 mg/kg, i.p., 60 minutes before KCN (3.0 mg/kg) tail intravenous injection; for Survival Time ±S.E.: time to respiratory arrest
# [2] = tested on: male mice of ddY line; experiment: Blood oxygen and carbon dioxide partial pressure; format: in vivo; conditions: 20 mg/kg, i.p.; blood from abdominal aorta 60 minutes after administration
# Method: In this experiment, 4-week-old male mice of ddY line (10 individuals per one group) were used after fasting treatment for 24 hours.
# After 60 minutes of the administration of each compound of the present invention, each mouse was subjected to ventrotomy under anesthesia with Nembutal® (Dainabot Co., Ltd.; 50 mg/kg, i.p.) to collect blood from abdominal aorta, and the collected blood sample was immediately checked for its oxygen partial pressure (PO₂) and carbon dioxide partial pressure (PCO₂) using a blood-aerotonometer (Model 170, Ciba-Corning).
# [3] = tested on: male rats of SD line; experiment: High cholesterol feed: blood viscosity, serum total cholesterol, triglyceride, GOT; format: in vivo; conditions: 100 mg/kg/day, p.o., 4 days
# Method: In this experiment, 5-week-old male rats of SD line (5 individuals per one group) were used after rearing them for 1 week using normal feed, and each compound of the present invention (100 mg/kg) was administered orally once a day for 4 days. Simultaneously with the commencement of the administration, the normal feed was replaced by a high cholesterol feed. After completion of the administration, they were subjected to fasting treatment for 24 hours. Thereafter, each rat was subjected to ventrotomy under anesthesia with Nembutal® (Dainabot Co., Ltd.; 50 mg/kg, i.p.) to collect blood from abdominal aorta, and the collected blood sample was checked for its blood viscosity using a viscometer (Biolyzer, Tokyo Keiki Co., Ltd.). At the same time, total cholesterol (Wako Pure Chemical Industries, Ltd.; Cholesterol E-test wako), triglyceride (Wako Pure Chemical Industries, Ltd.; Triglyceride G-test wako) and GOT (Wako Pure Chemical Industries, Ltd.; GOT-UV test-wako) in serum samples were measured.
# [4] = tested on: red blood cells; experiment: Inhibition of thermal hemolysis of red blood cells; format: cell-based, donryu rats; conditions: 53°C for 20 minutes; for inhibition at 10 µM / inhibition at 50 µM / inhibition at 100 µM / inhibition at 200 µM / inhibition at 500 µM: Rattus norvegicus, Erythrocyte, 20 min, read-out: Hemolysis Inhibition Ratio (%) against Control
# Method: Blood was collected from donryu rats of 150 to 200 g in body weight and centrifuged at 1,500 rpm for 5 minutes to obtain red blood cells. The red blood cells thus collected were diluted with 0.15 M phosphate buffer (pH 7.4) to prepare a 5% red blood cell suspension. A 3.8 ml portion of the thus prepared suspension was mixed with 0.2 ml solution of each compound of the present invention which has been adjusted to each level of the concentrations as shown in the following table, and the resulting mixture was shaken thoroughly and incubated at 53°C for 20 minutes. Thereafter, the thus incubated mixture was cooled rapidly with tap water and centrifuged at 3,000 rpm for 15 minutes, and absorbance at 540 nm of the resulting supernatant fluid was measured using a spectrophotometer (Hitachi: Type 200-20). Inhibition rate (%) of red blood cell hemolysis at each concentration of the compound was calculated based on the absorbance, with the results shown in Table 8.
# [5] = tested on: rats of diabetes mellitus; experiment: Blood sugar level in streptozotocin-induced diabetes mellitus; format: in vivo, male rats of Wistar line; conditions: 50 mg/kg, i.o.; administered for 1 week beginning 1 week after streptozotocin (40 mg/kg); serum
# Method: In this experiment, 8-week-old male rats of Wistar line (5 individuals per one group) were used after rearing them for 1 week with normal feed. Streptozotocin (40 mg/kg) was administered by tail intravenous injection to obtain rats of diabetes mellitus. Beginning after 1 week of the streptozotocin administration, oral administration of each test drug has been carried out for 1 week, followed by 24 hours of fasting. Thereafter, blood sample was collected from lower abdominal vena cava under anesthesia with Nembutal® (1 ml/kg, i.p.). Serum samples were prepared from the thus collected blood samples and checked for their blood sugar levels, with the results shown in Table 9.
# [6] = tested on: male rats of SHR line; experiment: Blood pressure in SHR rats; format: in vivo; conditions: 10 mg/kg, p.o., 2 weeks
# Method: In this experiment, 12-week-old male rats of SHR line (5 to 6 individuals per one group) were used after rearing them for 1 week with normal feed. Oral administration of each test drug has been carried out for 2 weeks and then blood pressure (mmHg) was measured using a small animal hemomanometer (UR-1000).
# [7] = tested on: male SD rats; experiment: Thrombus formation in abdominal vena cava; format: in vivo; conditions: 30 mg/kg, p.o.; dry weight of thrombus
# Method: Each of male SD rats of 130 to 210 g in body weight was anesthetized with Nembutal® (50 mg/kg, i.p.) and subjected to median incision ventrotomy to release about a 2 cm portion of abdominal vena cava below the renal vein. Blood flow of the thus released vena cava was temporarily stopped for 5 minutes with 8 hemostatic clips. After recirculating blood for 5 minutes by removing the hemostatic clips, […] was ligated at a position just below the renal vein and the median-incised part was sutured. Two hours after the ligature, the thus treated rat was again subjected to ventrotomy to excise abdominal vena cava. The thus excised blood vessel was cut open on a filter paper which had been moistened with physiological saline, in order to take out thrombus. The thrombus thus obtained was washed with physiological saline to remove adhered blood and the like substances and then dried at 80°C for 12 hours or longer to measure its dry weight. In this instance, each drug to be tested was orally administered 90 minutes before the clipping to examine its effect by single administration on the formation of thrombus. Separately from this, each test drug was administered to 6-week-old male SD rat continuously for 7 days, thrombus was prepared in the eighth day in the same manner as described above and dry weight of the thrombus was measured, in order to examine effect of the continuous 7 day administration on the thrombus formation.
# [8] = tested on: platelet rich plasma (PRP); experiment: Platelet aggregation in platelet rich plasma after oral administration; format: in vivo, male rat; conditions: 30 mg/kg, p.o., blood 90 minutes after administration
# Method: Each drug to be tested was orally administered to each male rat which has been subjected to fasting treatment for 18 to 24 hours. After 90 minutes of the administration, median incision ventrotomy was carried out under ether anesthesia to collect 9 volumes of blood using a syringe filled with 1 volume of 3.8% sodium citrate solution (3.8% sodium citrate solution:blood = 1:9). After thorough mixing, the thus prepared mixture was centrifuged at 800 rpm for 10 minutes at room temperature to collect the resulting supernatant fluid as platelet rich plasma (PRP). The residual portion was centrifuged at 3,000 rpm for 15 minutes at room temperature to collect the resulting supernatant fluid as platelet poor plasma (PPP). The PRP was diluted with the PPP to adjust the number of platelets to 3×10⁵ ± 2×10⁴ cells/µl. A 450 µl portion of the thus diluted PRP was incubated at 37°C for 3 minutes and then mixed with 50 µl of 1×10⁻⁵ M of ADP or 1×10⁻⁵ g/ml of collagen. Thereafter, platelet aggregation test of the mixture was carried out using an aggregometer by measuring transmittance at 940 nm.
Structure (SMILES),Lethality (%) [1] [%],Survival Time ±S.E. [1] [s],Carbon Dioxide Partial Pressure [2] [mmHg],Oxygen Partial Pressure [2] [mmHg],GOT ±S.E. [3] [IU/ℓ],Total Cholesterol ±S.E. [3] [mg/dL],Triglyceride ±S.E. [3] [mg/dL],Blood Sugar Level ± S.E. [5] [mg/dL],Blood Pressure ±S.E. Average [6] [mmHg],Blood Pressure ±S.E. Maximum [6] [mmHg],Antithrombotic Effect: Thrombus weight ±S.E. [7] [mg],Platelet Aggregation Ratio ±S.E. ([8]; ADP (1×10⁻⁵ M)) [%],Platelet Aggregation Ratio ±S.E. ([8]; Collagen (1×10⁻⁵ g/ml)) [%],inhibition at 10 µM ([4]; 0.01 mM) [%],inhibition at 50 µM ([4]; 0.05 mM) [%],inhibition at 100 µM ([4]; 0.1 mM) [%],inhibition at 200 µM ([4]; 0.2 mM) [%],inhibition at 500 µM ([4]; 0.5 mM) [%],other results
"C[C@H](CC[C@@H](O)CCO)[C@H]1CC[C@H]2[C@@H]3[C@H](O)C[C@@H]4C[C@H](O)CC[C@]4(C)[C@H]3C[C@H](O)[C@]12C [Illustrative Example 2, 27-nor-(24R)-(+)-3α,7α,12α,24,26-pentahydroxy-5β-cholestane]",80,95.3 ± 11.12,42.1,85.4,141 ± 6,444 ± 61,101 ± 42,171 ± 4.7,145 ± 8.1,200 ± 3.5,13.4 ± 2.38,51.5 ± 1.55,44.4 ± 4.51,,,,,,Hemolysis Inhibition Ratio (%) against Control ([4]; 0.01 mM): 31%; Hemolysis Inhibition Ratio (%) against Control ([4]; 0.05 mM): 23%; Hemolysis Inhibition Ratio (%) against Control ([4]; 0.1 mM): 38%; Hemolysis Inhibition Ratio (%) against Control ([4]; 0.2 mM): 60%; Hemolysis Inhibition Ratio (%) against Control ([4]; 0.5 mM): 71%
"C[C@H](CC[C@H](O)C(CO)CO)[C@H]1CC[C@H]2[C@@H]3[C@H](O)C[C@@H]4C[C@H](O)CC[C@]4(C)[C@H]3C[C@H](O)[C@]12C [Example 8, (24S)-3α,7α,12α,24,26,27-hexahydroxy-5β-cholestane]",70,123.0 ± 7.19,42.1,98.7,140 ± 13,410 ± 40,87 ± 15,112 ± 8.4,151 ± 9.5,180 ± 6.6,10.5 ± 1.43,41.8 ± 1.81,46.6 ± 3.81,27,20,37,50,60,
"C[C@H](CCCC(CO)CO)[C@H]1CC[C@H]2[C@@H]3[C@H](O)C[C@H]4C[C@H](O)CC[C@]4(C)[C@H]3C[C@H](O)[C@]12C [Example 7, 3α,7α,12α,26,27-pentahydroxy-5α-cholestane]",80,89 ± 9.99,41.1,81.1,138 ± 18,385 ± 58,92 ± 31,161 ± 5.5,155 ± 3.6,198 ± 3.7,12.2 ± 1.33,44.3 ± 2.43,42.1 ± 3.15,32,21,31,61,70,
"C[C@H](CC[C@@H](O)[C@@H](C)CO)[C@H]1CC[C@H]2[C@@H]3[C@H](O)C[C@@H]4C[C@H](O)CC[C@]4(C)[C@H]3C[C@H](O)[C@]12C [Example 11, (24R)-(25S)-3α,7α,12α,24,26-pentahydroxy-5β-cholestane]",80,103.0 ± 7.56,40.5,86.1,151 ± 15,433 ± 71,110 ± 33,187 ± 2.5,141 ± 9.1,188 ± 3.8,14.4 ± 2.01,43.3 ± 2.81,40.8 ± 1.90,20,18,30,43,51,
"C[C@H](CCCC(C)(O)CO)[C@H]1CC[C@H]2[C@@H]3[C@H](O)C[C@@H]4C[C@H](O)CC[C@]4(C)[C@H]3C[C@H](O)[C@]12C (stereo partly drawn) [Illustrative Example 4, 5β-cholestane-3α,7α,12α,25,26-pentol]",70,119.0 ± 7.12,40.5,91.9,116 ± 31,450 ± 59,108 ± 38,133 ± 5.4,144 ± 4.4,181 ± 2.5,14.1 ± 2.11,42.5 ± 1.65,48.7 ± 2.53,27,25,41,42,49,
